In US20100061928A1, “LABELLED ANALOGUES OF HALOBENZAMIDES AS RADIOPHARMACEUTICALS” (Institut National De La Sante et De La Recherche Medicale …, priority 2006, published 2010):
pIC50: −log10 of the molar value. Where a name gives a salt, the structure may show the parent alone.

What was measured:
[1] = test system: human melanoma (M4Beu); test: Cytotoxicity, Hoechst test, M4Beu
Procedure: (§1) The B16 F0, M4Beu and fibroblast lines are cultured in 75 cm^2 dishes comprising 12 ml of Eagle's essential medium with Earle's salts and Glutamax (Gibco-BRL, Paisley, Scotland) supplemented with 10% foetal calf serum, a solution of vitamins at 1× (Gibco), 1 mM sodium pyruvate (Gibco), a solution of nonessential amino acids at 1× (Gibco) and 4 μg/ml of gentamicin (antibiotic).
(§2) The cells are maintained at 37° C. in an incubator under an atmosphere comprising 5% CO2.
(§3) The cells (5×10^3) in 150 μl of culture medium are inoculated in 96-well plates (Nunclon™, Nunc, Roskilde, Denmark). […] The stock solutions (200×) are prepared with DMSO and are then stored at −20° C. 50 μl of a solution comprising stock solution and culture medium are subsequently added to the various wells (taking into account the different dilutions). Each test is carried out in triplicate.
(§4) The amount of cellular DNA is subsequently measured by the Hoechst test. […] The fluorescence obtained is measured using a Fluoroskan 96-well at the excitation wavelength at 360 nm and emission wavelength at 460 nm. Under these conditions, the fluorescence is proportional to the cell biomass in each well. The percentage of survival is defined by the fluorescence in each well (treated) with respect to the fluorescence of the control wells (drug-free), the blanks being subtracted (drug-free and cell-free wells).

[2] = test system: murine melanoma (B16 F0); test: Cytotoxicity, Hoechst test, B16 F0; conditions: read-out: IC50 B16; B16 F0 murine melanoma, 48 hours incubation, Hoechst test
Procedure: as §1, §2, §3
The amount of cellular DNA is subsequently measured by the Hoechst test. The plates are then defrosted at ambient temperature for 10 minutes. 100 μl of a 0.01% (w/v) solution of SDS (sodium dodecyl sulphate) in sterile distilled water are subsequently added using a microvolume dispenser. The plates (96 well) are incubated with stirring at ambient temperature for 30 minutes and are then frozen at −80° C. for one hour. The plates are subsequently defrosted at ambient temperature for 20 minutes. […] The plates are then incubated for one hour at ambient temperature, with stirring and with the exclusion of light. The fluorescence obtained is measured using a Fluoroskan 96-well at the excitation wavelength at 360 nm and emission wavelength at 460 nm. Under these conditions, the fluorescence is proportional to the cell biomass in each well. The percentage of survival is defined by the fluorescence in each well (treated) with respect to the fluorescence of the control wells (drug-free), the blanks being subtracted (drug-free and cell-free wells).

[3] = test system: human fibroblast cell lines; test: Cytotoxicity, Hoechst test, human fibroblasts; conditions: read-out: IC50 Fibroblast; human fibroblasts, 48 hours incubation, Hoechst test
Procedure: as §1, §2, §3, §4

[4] = test system: melanoma grafted subcutaneously (B16 F0 cells); test: Antitumour effectiveness by systemic administration after labelling with ^131I; assay type: in vivo, C57BL6 mice; conditions: two doses of 18.5 MBq i.v., 6 and 10 days after induction of the tumours
Procedure: The study relates to 20 C57B16 mice bearing a melanoma grafted subcutaneously by injection of 50 000 B16 F0 cells (0.1 ml). On the 17th day, the animals are weighed and the tumours are measured in two dimensions (L, l), the tumour volume being expressed by L×l^2×½. On the 18th day (D18), the mice are divided into two groups, the labelled compound [^131I]-31 with a high specific activity is administered by the i.v. route (37 MBq; 0.2 ml) to 10 mice and 10 constitute the control batch. The monitoring of the animals is carried out with all the necessary radioprotection measures and in particular the removal of the contaminated bedding, the animals are weighed and the tumours are measured every two days. Taking into account the volume of the tumours and ethical considerations, the surviving animals were euthenized on the 20th day after injection, i.e. 38 days after the tumour graft. […] The evaluation of the effectiveness of an i.v. administration of [^131I]-31 on tumour growth of C57BL6 mice which have received a subcutaneous graft of B 16 melanoma 18 days before treatment is represented in FIG. 2. The times on the abscissa are given with respect to the day of inoculation of the tumours and with respect to the day of treatment.
The evaluation of the effectiveness of an i.v. administration of [^131I]-46 on tumour growth of C57BL6 mice which have received a subcutaneous graft of B 16 melanoma is represented in FIG. 3. The times on the abscissa are given with respect to the day of inoculation of the tumours and with respect to the first day of treatment. Under these conditions, the median of survival is extended and changes from 32 days for the control animals to 39 days for the treated animals. This experiment was repeated according to the same protocol and fully superimposable results were obtained.

[5] = test system: tumour; test: Dosimetry with regard to the tumour (MIRD programme, extrapolated to ^131I)
[6] = test system: grafted B16 F0 murine melanoma tumour; test: Biodistribution of the ^125I-labelled molecules in the melanoma-bearing mouse (autoradiography of whole-body sections)
Procedure: The distribution of the radioactivity of the various compounds in the body (tumour and other organs) is quantified using an Ambis 4000 image analyzer on sections of whole animals. […] All the in vivo experimentation is carried out within the context defined by French legislation relating to animal experimentation.
The B16 F0 melanoma cells are provided by the ATCC and cultured in monolayers in culture medium (MEM, Invitrogen) supplemented with 10% foetal calf serum and antibiotics. The cultures are maintained by subculturing after trypsinization. The cells of the first passages are frozen and stored in liquid nitrogen. For the transplanting, the cells in culture at confluence are detached by trypsinization and washed with phosphate buffer (PBS).
The distribution of the radioactivity present in the sections is analyzed using an AMBIS 4000 analyzer (Scanalytics, CSPI, San Diego, Calif.), which is a proportional counter with a multiwire chamber validated and calibrated beforehand for the monitoring of iodine in the mouse. The measurements require acquisition times of 1000 minutes. […] The value of radioactivity per unit of surface area (cpm/mm^2) is converted to concentration (kBq/g) and expressed as percentage of the injected dose/g of tissue (% ID/g).

SMILES: CN(C)CCNC(=O)c1cccc2cc3ccccc3nc12 [DACA, reference compound]
- pIC50 ([1]; read-out: IC50 M4Beu, M4Beu human melanoma, 48 hours incubation, Hoechst test): 5.74
- pIC50 [2]: 6.72
- pIC50 [3]: 5.15

SMILES: CCN(CC)CCNC(=O)c1cnc2cc([131I])ccc2n1.Cl [[^131I]-46, [^131I]-N-(2-diethylaminoethyl)-6-iodoquinoxaline-2-carboxamide hydrochloride]
- tumour growth (in words) [4]: clearly slowed down
- median of survival, treated animals ([4]; control animals 32 days): 39 days

SMILES: CCN(CC)CCNC(=O)c1cccc2c(Nc3ccc(NS(C)(=O)=O)cc3OC)c3cc(I)ccc3nc12 [compound 129, N-(2-diethylaminoethyl)-7-iodo-9-(4-methanesulphonamido-2-methoxyanilino)acridine-4-carboxamide dihydrochloride]
- cytotoxic effectiveness (in words) ([1]; M4Beu human cells, compared with amsacrine): best effectiveness with regard to the M4Beu human cells, close to the values obtained for amscrine
- Effective period ([5]; extrapolated to 131I labelling): 88.3 h
- Biological period ([5]; from biodistribution data): 162.3 hours
- Biodistribution, Mean, GB ([6]; 1 H): 20.19
- Biodistribution, Mean, GB ([6]; 6 H): 166.43
- Biodistribution, Mean, brain ([6]; 1 H): 0.12
- Biodistribution, Mean, brain ([6]; 3 H): 0.03
- Biodistribution, Mean, muscle ([6]; 3 H): 0.48
- Biodistribution, Mean, muscle ([6]; 6 H): 0.44
- Biodistribution, Mean, thyroid ([6]; thyroid, 6 H): 34.81
